According to patent US6733985B1, “Preparation of stable liquid and dried synthetic prothrombin time reagents” (International Technidyne Corporation, priority 1999, dated 2004):
Where a SMILES comes first, the peptide text is derived from it.

B1: recombinant tissue factor: recombinant tissue factor based PT reagent, named in b17 as comparison for sensitivity (protein, UniProt P13726 33-295, looked up)
Tissue factor: SGTTNTVAAYNLTWKSTNFKTILEWEPKPVNQVYTVQISTKSGDWKSKCFYTTDTECDLTDEIVKDVKQTYLARVFSYPAGNVESTGSAGEPLYENSPEFTPYLETNLGQPTIQSFEQVGTKVNVTVEDERTLVRRNNTFLSLRDVFGKDLIYTLYYWKSSSSGKKTAKTNTNEFLIDVDKGENYCFSVQAVIPSRTVNRKSTDSPVECMGQEKGEFREIFYIIGAVVFVVIILVIILAISLHKCRKAGVGQSWKENSPLNVS
modifications: PT reagent
notes: recombinant tissue factor based PT reagent, named in b17 as comparison for sensitivity

How the values were obtained:
[1] = system: Level I (normal control) and Level III (abnormal control) control plasma; assay: traditional prothrombin time test method using a Fibrometer; conditions: amino acid stabilizer compound formulated into PT reagent (summary of Examples 1 to 13)
Protocol: The concentration of the dissolved phospholipids was 12.76 mM. […] Additional bovine serum albumin was added to a concentration of 4.8 mg/ml. […] The dialyzed lipidated tissue factor, was then drained from the dialysis bag. […] The formulated material was frozen at −70° C., and then thawed. The thawed formulated material was incubated at 25 and 37° C. for 4 weeks, The reagent was taken out from the incubation at weekly intervals and subjected to coagulation assay by traditional prothrombin time test method using a Fibrometer. The control plasma samples used for the assay were Level I (normal control) and Level III (abnormal control) of Ortho Diagnostics Corporation. […] The Level III abnormal control plasma contains a reduced amount of coagulation factors representing the plasma of patients.

[2] = system: Control Level I or Level III plasma samples; assay: clotting assay of air-dried reagent in cuvets for Protime instrument; format: biochemical; conditions: Example 11 lipidated tissue factor in 14 mM Hepes, 4% sorbitol, 1% β-alanine, with 1% polymeric carbohydrate or none
Protocol: The formulated material was air-dried at 20° C. and 5% relative humidity in cuvets for Protime instrument (a product of International Technidyne Corporation, Edison, N.J.). The produced cuvets with reagent were incubated at 25, 37 and 45° C. for stability studies. At given time intervals, the cuvets were taken out of the incubators and assayed for their clotting activities. Freshly withdrawn blood, Control Level I or Level III plasma samples were added to the cuvets with the dried reagent for assay. Calcium chloride, 8.3 mM, was added to the control plasmas and loaded on the cuvet immediately for assay. In this assay system, reconstitution of the dried reagent is done with plasma or blood, without using water, which is different from Fibrometer assay system. Thence, the kinetics involved in these two systems are different, as well as the clotting times. Whole blood contains a considerable amount of red blood cells and other blood components and its clotting activity is different from that of plasma. For comparison, the clotting time with freshly withdrawn whole blood at day zero was 22.8 seconds.
As shown in the results, γ-Cyclodextrin is a useful homogeneous polymeric carbohydrate to adjust the sensitivity of the synthetic PT reagent.

[3] = system: Level III and Level I plasma; conditions: prior art comparison; cited from earlier work

| Molecule | Level III/I ratio test results [1] | further results |
| --- | --- | --- |
| N=C(N)NCCC[C@H](N)C(=O)O [Arginine] | Unsatis- | – |
| N[C@@H](CC(=O)O)C(=O)O [Aspartic acid] | Unsatis- | – |
| NCCC(=O)O [Beta alanine] | Satisfac- | – |
| NCCCCC(=O)O [Delta aminovaleric acid] | Satisfac- | – |
| NCCCC(=O)O [Gamma aminobutyric acid] | Satisfac- | – |
| NCC(=O)NCC(=O)O [Glycylglycine] (H-Gly-Gly-OH) | Unsatis- | – |
| OC[C@H]1O[C@@H]2O[C@H]3[C@H](O)[C@@H](O)[C@@H](O[C@H]4[C@H](O)[C@@H](O)[C@@H](O[C@H]5[C@H](O)[C@@H](O)[C@@H](O[C@H]6[C@H](O)[C@@H](O)[C@@H](O[C@H]7[C@H](O)[C@@H](O)[C@@H](O[C@H]8[C@H](O)[C@@H](O)[C@@H](O[C@H]9[C@H](O)[C@@H](O)[C@@H](O[C@H]1[C@H](O)[C@H]2O)O[C@@H]9CO)O[C@@H]8CO)O[C@@H]7CO)O[C@@H]6CO)O[C@@H]5CO)O[C@@H]4CO)O[C@@H]3CO [γ-Cyclodextrin] | – | Clotting Times, Level I [2]: 17.6 s; Clotting Times, Level III [2]: 81.8 s; III/I Ratio [2]: 4.7 |
| NCCCCCC(=O)O [ε-aminocaproic acid] | Unsatis- | – |
| B1 | – | Level III/I sensitivity [3]: 4.0 |
